“And” between values parts separate entries of the source, which are not always exact repeats. Identical values can stand only once. Inconclusive results and toxic doses are left out.

The test system of this experiment is BDF1 mice, P388 leukemia ip, median survival T/C. Put plainly: NCI In Vivo Anticancer Drug Screen. Data for tumor model P388 Leukemia (intraperitoneal) in B6D2F1 (BDF1) mice. The note with it: endpoint: median survival time, higher = longer survival. Summed up: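 Survival ratio, drug arm over vehicle arm, in mice with a transplanted tumour.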
Setting [1] is: dose: 50.0 mg/kg/injection, schedule: Q04DX003 (ip), vehicle: saline with Tween-80.

`NC(CCSCc1ccc(N(CCCl)CCCl)cc1)C(=O)O` (stereo unspecified): the T/C (dose: 2.0 mg/kg/injection, schedule: Q01DX009 (ip), vehicle: Klucel (hydroxypropylcellulose) (HPC)) was 163 % of control; the T/C (dose: 3.0 mg/kg/injection, schedule: Q01DX009 (ip), vehicle: Klucel (hydroxypropylcellulose) (HPC)) was 186 % of control; the T/C (dose: 4.5 mg/kg/injection, schedule: Q01DX009 (ip), vehicle: Klucel (hydroxypropylcellulose) (HPC)) is 190 % of control; the T/C (dose: 5.0 mg/kg/injection, schedule: Q04DX003 (ip), vehicle: Klucel (hydroxypropylcellulose) (HPC)) was 169 % of control; the T/C (dose: 7.0 mg/kg/injection, schedule: Q01DX009 (ip), vehicle: Klucel (hydroxypropylcellulose) (HPC)) was 183 % of control and 213 % of control; the T/C (dose: 8.0 mg/kg/injection, schedule: Q04DX003 (ip), vehicle: Klucel (hydroxypropylcellulose) (HPC)) was 184 % of control. The T/C (dose: 11.0 mg/kg/injection, schedule: Q01DX009 (ip), vehicle: Klucel (hydroxypropylcellulose) (HPC)) was 212 % of control; the T/C (dose: 13.0 mg/kg/injection, schedule: Q04DX003 (ip), vehicle: Klucel (hydroxypropylcellulose) (HPC)) was 207 % of control; the T/C (dose: 14.0 mg/kg/injection, schedule: Q04DX003 (ip), vehicle: alcohol) is 230 % of control; the T/C (dose: 17.0 mg/kg/injection, schedule: Q01DX009 (ip), vehicle: Klucel (hydroxypropylcellulose) (HPC)) was 225 % of control and 272 % of control; the T/C (dose: 20.0 mg/kg/injection, schedule: Q04DX003 (ip), vehicle: Klucel (hydroxypropylcellulose) (HPC)) is 230 % of control and 204 % of control; the T/C (dose: 21.0 mg/kg/injection, schedule: Q04DX003 (ip), vehicle: alcohol) was 226 % of control. For the same compound, the T/C (dose: 25.0 mg/kg/injection, schedule: Q01DX009 (ip), vehicle: Klucel (hydroxypropylcellulose) (HPC)) is 272 % of control; the T/C (dose: 30.0 mg/kg/injection, schedule: Q04DX003 (ip), vehicle: Klucel (hydroxypropylcellulose) (HPC)) is 272 % of control; the T/C (dose: 33.0 mg/kg/injection, schedule: Q04DX003 (ip), vehicle: saline with Tween-80) is 168 % of control and 213 % of control; the T/C (dose: 37.0 mg/kg/injection, schedule: Q01DX009 (ip), vehicle: Klucel (hydroxypropylcellulose) (HPC)) was 272 % of control; the T/C (dose: 45.0 mg/kg/injection, schedule: Q04DX003 (ip), vehicle: Klucel (hydroxypropylcellulose) (HPC)) was 268 % of control; the T/C (dose: 50.0 mg/kg/injection, schedule: Q01DX009 (ip), vehicle: Klucel (hydroxypropylcellulose) (HPC)) was 89 % of control. Besides, the T/C under setting [1] was 227 % of control and 272 % of control; the T/C (dose: 67.0 mg/kg/injection, schedule: Q04DX003 (ip), vehicle: Klucel (hydroxypropylcellulose) (HPC)) is 230 % of control; the T/C (dose: 75.0 mg/kg/injection, schedule: Q04DX003 (ip), vehicle: saline with Tween-80) was 272 % of control and 190 % of control; the T/C (dose: 100.0 mg/kg/injection, schedule: Q04DX003 (ip), vehicle: Klucel (hydroxypropylcellulose) (HPC)) is 230 % of control and 250 % of control; the T/C (dose: 150.0 mg/kg/injection, schedule: Q04DX003 (ip), vehicle: Klucel (hydroxypropylcellulose) (HPC)) is 123 % of control; the T/C (dose: 375.0 micrograms/kg/injection, schedule: Q04DX003 (ip), vehicle: saline with Tween-80) is 120 % of control.
For the compound `O=C(O)Cc1ccc(C2CCCCC2)cc1`, the T/C by setting is: (dose: 100.0 mg/kg/injection, schedule: Q01DX009 (ip), vehicle: Klucel (hydroxypropylcellulose) (HPC)) 91 % of control and 95 % of control; (dose: 200.0 mg/kg/injection, schedule: Q01DX009 (ip), vehicle: Klucel (hydroxypropylcellulose) (HPC)) 90 % of control; (dose: 400.0 mg/kg/injection, schedule: Q01DX009 (ip), vehicle: Klucel (hydroxypropylcellulose) (HPC)) 90 % of control and 100 % of control.
As for `NC(=O)C(CO)NC(=O)OCc1ccccc1` (stereo unspecified), the T/C is 110 % of control (dose: 25.0 mg/kg/injection, schedule: Q04DX003 (ip), vehicle: water); 103 % of control (dose: 50.0 mg/kg/injection, schedule: Q04DX003 (ip), vehicle: water); 100 % of control (dose: 100.0 mg/kg/injection, schedule: Q04DX003 (ip), vehicle: water); 100 % of control (dose: 200.0 mg/kg/injection, schedule: Q04DX003 (ip), vehicle: water); 103 % of control (dose: 400.0 mg/kg/injection, schedule: Q04DX003 (ip), vehicle: water).
As to `COc1c(C#N)c2c(c(OC)c1OC)-c1ccc(OC)c(=O)cc1[C@@H](NC(C)=O)CC2`, the T/C (dose: 6.25 mg/kg/injection, schedule: Q01DX009 (ip), vehicle: Klucel (hydroxypropylcellulose) (HPC)) was 119 % of control.
For `CC[N+](CC)(CC)CCCCCCCCCC[N+](CC)(CC)CC`, the T/C by setting is: (dose: 0.25 mg/kg/injection, schedule: Q01DX009 (ip), vehicle: water) 91 % of control; (dose: 0.39 mg/kg/injection, schedule: Q04DX003 (ip), vehicle: water) 102 % of control and 107 % of control; (dose: 0.5 mg/kg/injection, schedule: Q01DX009 (ip), vehicle: water) 112 % of control; (dose: 0.5 mg/kg/injection, schedule: Q04DX003 (ip), vehicle: saline with Tween-80) 92 % of control; (dose: 0.78 mg/kg/injection, schedule: Q04DX003 (ip), vehicle: saline with Tween-80) 100 % of control; (dose: 0.78 mg/kg/injection, schedule: Q04DX003 (ip), vehicle: water) 98 % of control and 120 % of control. The T/C by setting is: (dose: 1.0 mg/kg/injection, schedule: Q01DX009 (ip), vehicle: water) 91 % of control and 105 % of control; (dose: 1.0 mg/kg/injection, schedule: Q04DX003 (ip), vehicle: saline with Tween-80) 92 % of control; (dose: 1.56 mg/kg/injection, schedule: Q04DX003 (ip), vehicle: water) 95 % of control and 104 % of control.
Take `OCC(O)C(O)C(O)C(O)c1nc2ccccc2[nH]1` (stereo unspecified): the T/C runs as follows: under setting [1], 119 % of control; (dose: 100.0 mg/kg/injection, schedule: Q04DX003 (ip), vehicle: saline with Tween-80) 97 % of control; (dose: 200.0 mg/kg/injection, schedule: Q04DX003 (ip), vehicle: saline with Tween-80) 95 % of control; (dose: 400.0 mg/kg/injection, schedule: Q04DX003 (ip), vehicle: saline with Tween-80) 103 % of control.
Turning to `COC(=O)CSC/C(=N\Nc1ccccc1)c1ccccc1`, the T/C (dose: 100.0 mg/kg/injection, schedule: Q01DX001 (ip), vehicle: Klucel (hydroxypropylcellulose) (HPC)) was 95 % of control; the T/C (dose: 200.0 mg/kg/injection, schedule: Q01DX001 (ip), vehicle: Klucel (hydroxypropylcellulose) (HPC)) is 100 % of control; the T/C (dose: 400.0 mg/kg/injection, schedule: Q01DX001 (ip), vehicle: Klucel (hydroxypropylcellulose) (HPC)) is 109 % of control.
For `O=S(=O)(O)C(I)(I)S(=O)(=O)O`, the T/C runs as follows: (dose: 100.0 mg/kg/injection, schedule: Q04DX003 (ip), vehicle: saline) 100 % of control; (dose: 200.0 mg/kg/injection, schedule: Q04DX003 (ip), vehicle: saline) 95 % of control; (dose: 400.0 mg/kg/injection, schedule: Q04DX003 (ip), vehicle: saline) 104 % of control.
As for `CC12CCC(O)CC1CCC1C2CCC2(C)C(C3=CC(=O)OC3)CCC12` (stereo unspecified), the T/C by setting is: (dose: 140.0 mg/kg/injection, schedule: Q01DX010 (ip), vehicle: carboxymethylcellulose (CMC)) 122 % of control; (dose: 280.0 mg/kg/injection, schedule: Q01DX010 (ip), vehicle: carboxymethylcellulose (CMC)) 122 % of control.
For the compound `CN(C)c1ccc(/C=C\c2cc(/C=C/c3ccc(N(C)C)cc3)nc3ccccc23)cc1`, the T/C is 103 % of control (dose: 50.0 mg/kg/injection, schedule: Q01DX009 (ip), vehicle: saline with Tween-80); 116 % of control (dose: 100.0 mg/kg/injection, schedule: Q01DX009 (ip), vehicle: saline with Tween-80); 120 % of control (dose: 200.0 mg/kg/injection, schedule: Q01DX009 (ip), vehicle: saline with Tween-80).
Regarding `O=C(Nc1ccccc1O)c1ccccc1`, the T/C runs as follows: (dose: 100.0 mg/kg/injection, schedule: Q04DX003 (ip), vehicle: saline sonified) 90 % of control; (dose: 200.0 mg/kg/injection, schedule: Q04DX003 (ip), vehicle: saline sonified) 100 % of control; (dose: 400.0 mg/kg/injection, schedule: Q04DX003 (ip), vehicle: saline sonified) 90 % of control.
Take `CC1CCS(=O)(=O)CC1.[Cl][Hg][Cl]`: the T/C was 95 % of control (dose: 0.3 mg/kg/injection, schedule: Q01DX009 (ip), vehicle: saline); 100 % of control (dose: 0.6 mg/kg/injection, schedule: Q01DX009 (ip), vehicle: saline); 95 % of control (dose: 1.2 mg/kg/injection, schedule: Q01DX009 (ip), vehicle: saline).
Take `CCCCCCCCCC(O)CCCCCC` (stereo unspecified): the T/C was 105 % of control (dose: 100.0 mg/kg/injection, schedule: Q01DX009 (ip), vehicle: other); 95 % of control (dose: 100.0 mg/kg/injection, schedule: Q04DX003 (ip), vehicle: other); 118 % of control (dose: 200.0 mg/kg/injection, schedule: Q04DX003 (ip), vehicle: other).
